Assays:
[1] = target: Kelch-like ECH-associated protein 1 (Homo sapiens) (UniProt Q14145); test: Inhibition of Keap1-Nrf2 interaction in human HepG2-ARE-C8 cells assessed as activation of Nrf2-ARE luciferase activity at 20 uM after 12 hrs relative to control; assay type: cell-based
[2] = target: Kelch-like ECH-associated protein 1 (Homo sapiens) (UniProt Q14145); test: Inhibition of Keap1-Nrf2 interaction in human HepG2-ARE-C8 cells assessed as activation of Nrf2-ARE luciferase activity at 40 uM after 12 hrs relative to control; assay type: cell-based
[3] = target: Kelch-like ECH-associated protein 1 (Homo sapiens) (UniProt Q14145); test: Inhibition of Keap1-Nrf2 interaction in human HepG2-ARE-C8 cells assessed as activation of Nrf2-ARE luciferase activity at 80 uM after 12 hrs relative to control; assay type: cell-based
[4] = tested on: HCT-116; test: Cytotoxicity against human HCT116 cells at 10 uM; assay type: cell-based; details: hct-116, 10 µM
[5] = Dissociation constant, pKa of the compound; assay type: physicochemical
[6] = Partition coefficient, log D of the compound at pH 7.4; assay type: physicochemical; details: octanol/water

Sequence of Kelch-like ECH-associated protein 1 (Homo sapiens) (Q14145 whole entry): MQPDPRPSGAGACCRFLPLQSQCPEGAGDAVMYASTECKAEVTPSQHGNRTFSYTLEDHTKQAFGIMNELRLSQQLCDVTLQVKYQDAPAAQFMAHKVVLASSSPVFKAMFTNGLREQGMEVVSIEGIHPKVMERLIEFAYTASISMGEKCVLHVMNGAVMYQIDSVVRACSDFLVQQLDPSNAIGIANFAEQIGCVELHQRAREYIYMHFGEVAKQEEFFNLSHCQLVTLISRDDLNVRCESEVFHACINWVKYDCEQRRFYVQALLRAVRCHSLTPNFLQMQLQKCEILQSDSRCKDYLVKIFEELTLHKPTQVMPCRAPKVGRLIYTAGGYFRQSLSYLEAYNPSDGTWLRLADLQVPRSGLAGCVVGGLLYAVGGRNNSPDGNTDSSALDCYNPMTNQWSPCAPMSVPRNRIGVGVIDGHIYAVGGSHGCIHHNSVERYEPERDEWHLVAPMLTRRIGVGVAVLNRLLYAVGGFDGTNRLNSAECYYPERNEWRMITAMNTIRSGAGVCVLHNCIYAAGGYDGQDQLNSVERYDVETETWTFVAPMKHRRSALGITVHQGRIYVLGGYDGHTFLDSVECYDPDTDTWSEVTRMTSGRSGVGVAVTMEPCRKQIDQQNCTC

| Compound | fold change (FC) [1] | fold change (FC) [2] | fold change (FC) [3] | Activity [4] | pKa [5] | logD [6] |
| --- | --- | --- | --- | --- | --- | --- |
| C[S+]([O-])CCCCN=C=S (configuration not stated) | 18.1 |  |  |  |  |  |
| CC(C)(C)c1cc(O)ccc1O | 2.22 | 3.81 | 6.21 |  |  |  |
| COc1ccc(S(=O)(=O)N(CC(=O)O)c2ccc(N(CC(=O)O)S(=O)(=O)c3ccc(OC)cc3)c3ccccc23)cc1 |  |  |  | Non-toxic | 4.62 | 1.71 |
